Where no end group is shown, it is not given here.
Key:
[1] = Observed water / reaction buffer solubility of ligands; details: for Observed water solubility: Table 1; for solubility in the reaction buffer: 0.01 M potassium phosphate reaction buffer (pH 7.4)
[2] = Dynamic light scattering (DLS) of plant VNPs and conjugates; type: physicochemical; details: purified conjugate particles; (+F127) = COAT/FORMCOAT, (−F127) = uncoated control
Protocol: DLS. The hydrodynamic diameter of native and conjugated plant VNPs was determined by diluting the samples to 1 mg/mL in 0.01 M potassium phosphate buffer (pH 7.4) followed by measurement using a Zetasizer Nano ZSP/Zen5600 instrument (Malvern Panalytical, Malvern, UK). The particle length was calculated as the weighted mean of the intensity distribution.

[3] = Aggregation / dispersion of conjugate particles (photograph, DLS, TEM); type: physicochemical; details: pH 7.4

Molecule | Observed water solubility [1] | solubility in the reaction buffer [1] | PDI [2] | Z-average [2] | aggregation / dispersion of the particles [3]
CGGGVFLQKYPHTHLVHQA [Myostatin 1] | Good | – | – | – | –
YQDMVLWKDVFRKNNQLAPVGPSLC [CH401-Rat] | Poor | insoluble | – | – | –
CSCC[C@H](NC(=O)[C@H](Cc1c[nH]c2ccccc12)NC(=O)[C@H](CO)NC(=O)[C@H](CCCCN)NC(=O)[C@H](CC(N)=O)NC(=O)[C@H](CC(N)=O)NC(=O)[C@H](CCCCN)NC(=O)[C@H](Cc1c[nH]cn1)NC(=O)[C@H](Cc1ccc(O)cc1)NC(=O)[C@H](Cc1ccc(O)cc1)NC(=O)[C@@H](NC(=O)CNC(=O)[C@H](CC(C)C)NC(=O)[C@H](Cc1ccccc1)NC(=O)[C@@H]1CCCN1C(=O)CNC(=O)CNC(=O)CNC(=O)[C@@H](N)CS)C(C)C)C(=O)O [COVID-153] | Poor | insoluble | – | – | –
CC[C@H](C)[C@H](NC(=O)[C@H](Cc1ccccc1)NC(=O)[C@H](CO)NC(=O)[C@H](CCCNC(=N)N)NC(=O)[C@H](CCCCN)NC(=O)[C@H](CO)NC(=O)[C@@H]1CCCN1C(=O)[C@H](CCCCN)NC(=O)[C@H](CO)NC(=O)[C@@H]1CCCN1C(=O)CNC(=O)CNC(=O)CNC(=O)[C@@H](N)CS)C(=O)N[C@@H](CCC(=O)O)C(=O)N[C@@H](CC(=O)O)C(=O)N[C@@H](CC(C)C)C(=O)N[C@@H](CC(C)C)C(=O)N[C@@H](Cc1ccccc1)C(=O)N[C@@H](CC(N)=O)C(=O)N[C@@H](CCCCN)C(=O)N[C@H](C(=O)O)C(C)C [COVID-826] | Good | – | – | – | –
CSGGGDWFKAFYDKVAEKFKEAF [ApoAI-4FN] | Good | – | – | – | –
CSGGGWGWSLSHGYQVK [ScG3] | Good | – | – | – | –
CC[C@H](C)[C@H](NC(=O)[C@H](Cc1c[nH]c2ccccc12)NC(=O)CNC(=O)[C@H](CCCNC(=N)N)NC(=O)[C@@H](NC(=O)[C@@H](NC(=O)[C@H](CC(N)=O)NC(=O)[C@H](CO)NC(=O)[C@H](CCCCN)NC(=O)[C@H](CCC(=O)O)NC(=O)[C@@H](NC(=O)[C@H](CO)NC(=O)[C@H](C)NC(=O)[C@H](Cc1ccccc1)NC(=O)CNC(=O)CNC(=O)CNC(=O)[C@@H](N)CS)[C@@H](C)O)[C@@H](C)CC)[C@@H](C)CC)C(=O)N[C@@H](Cc1ccccc1)C(=O)O [COVID-106] | Poor | insoluble | – | – | –
CC(C)C[C@H](NC(=O)[C@H](Cc1ccc(O)cc1)NC(=O)[C@H](CC(N)=O)NC(=O)[C@H](Cc1ccc(O)cc1)NC(=O)[C@H](CC(N)=O)NC(=O)CNC(=O)CNC(=O)[C@@H](NC(=O)[C@H](CCCCN)NC(=O)[C@H](CO)NC(=O)[C@H](CC(=O)O)NC(=O)[C@H](CC(C)C)NC(=O)[C@H](CC(N)=O)NC(=O)[C@H](CC(N)=O)NC(=O)CNC(=O)CNC(=O)CNC(=O)[C@@H](N)CS)C(C)C)C(=O)N[C@@H](Cc1ccc(O)cc1)C(=O)N[C@@H](CCCNC(=N)N)C(=O)O [COVID-454] | Poor | insoluble | – | – | –
TMV-Cy5.5 (+F127): Cy5.5 conjugated to TMV lysines via NHS ester, COAT method; Table 4 row Cy5.5 NHS (+F127) (conjugate, UniProt P69687 2-159, looked up, Cy5.5 dye, F127 coated virion) Capsid protein: SYSITTPSQFVFLSSAWADPIELINLCTNALGNQFQTQQARTVVQRQFSEVWKPSPQVTVRFPDSDFKVYRYNAVLDPLVTALLGAFDTRNRIIEVENQANPTTAETLDATRRVDDATVAIRSAINNLIVELIRGTGSYNRSSFESSSGLVWTSGPAT | – | – | 0.236 | 277.6 nm | dispersed and soluble, with no visible signs of aggregation
TMV-Cy5.5 (−F127): Cy5.5 conjugated to uncoated TMV, control; Table 4 row Cy5.5 NHS (−F127) (conjugate, UniProt P69687 2-159, looked up, Cy5.5 dye on whole virion) Capsid protein: SYSITTPSQFVFLSSAWADPIELINLCTNALGNQFQTQQARTVVQRQFSEVWKPSPQVTVRFPDSDFKVYRYNAVLDPLVTALLGAFDTRNRIIEVENQANPTTAETLDATRRVDDATVAIRSAINNLIVELIRGTGSYNRSSFESSSGLVWTSGPAT | – | – | 0.749 | 436.8 nm | prone to aggregation

Source: patent publication US20240350422A1, “FORMULATION PROCESS FOR CPMV NANOPARTICLES” (The Regents of the University of California, priority 2021, published 2024)
